Source: US12281122B1, “PI3K inhibitors” (Cogent Biosciences, Inc., priority 2023, dated 2025)

Key:
[1] = system: T47D (PI3Kα-H1047R) cell line; experiment: HTRF phospho-AKT(S473) cell assay in T47D cells; format: cell-based, human
Method in brief: (§1)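 T47D: RPMI + 10% FBS + 0.2 units/mL insulin, top 5 μM. SKBR3: McCoy's 5A + 10% FBS, top 10 μM, 70 ng/ml PDGF-BB last 15 min. Both: 12-pt 1:3, 2 h, 37° C, max 0.5% DMSO; HTRF pAKT(S473); IC50.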

[2] = system: SKBR3 (PI3Kα-Wild Type) cell line; experiment: HTRF phospho-AKT(S473) cell assay in SKBR3 cells; format: cell-based, human
Method in brief: as §1

[3] = Homo sapiens; HTRF phospho-AKT(S473), T47D (PI3Kα-H1047R) cells, 2 hours compound incubation
[4] = Homo sapiens, SK-BR-3; HTRF phospho-AKT(S473), SKBR3 (PI3Kα-Wild Type) cells, 2 hours compound incubation, PDGF-BB stimulated
[5] = Homo sapiens; T47D (PI3Kα-H1047R) cells, HTRF phospho-AKT(S473), 2 hours compound incubation
[6] = Homo sapiens, SK-BR-3; SKBR3 (PI3Kα-Wild Type) cells, HTRF phospho-AKT(S473), 2 hours compound incubation, PDGF-BB stimulated

IC50 [1, 3] [nM]	IC50 [2, 4] [nM]	IC50 [1, 5] [nM]	IC50 [2, 6] [nM]	Structure (SMILES)
< 250	1000 to 5000			Cc1cc([C@@H](C)Nc2ccc(Cl)nc2C(=O)NS(C)(=O)=O)c2nc(N3C[C@@H]4[C@H](C3)[C@H]4c3nnn(C)c3C)n(C)c(=O)c2c1 [Compound 498, 6-chloro-3-(((R)-1-(2-((1R,5S,6R)-6-(1,5-dimethyl-1H-1,2,3-triazol-4-yl)-3-azabicyclo[3.1.0]hexan-3-yl)-3,6-dimethyl-4-oxo-3,4-dihydroquinazolin-8-yl)ethyl)amino)-N-(methylsulfonyl) picolinamide]
		< 250	1000 to 5000	Cc1cc([C@@H](C)Nc2ccc(Cl)nc2C(=O)NS(C)(=O)=O)c2nc(N3C[C@@H]4[C@H](C3)[C@H]4c3cnccn3)n(C)c(=O)c2c1 [Compound 439, 6-chloro-3-(((R)-1-(3,6-dimethyl-4-oxo-2-((1R,5S,6R)-6-(pyrazin-2-yl)-3-azabicyclo[3.1.0]hexan-3-yl)-3,4-dihydroquinazolin-8-yl)ethyl)amino)-N-(methylsulfonyl) picolinamide]
		< 250	1000 to 5000	Cc1cc([C@@H](C)Nc2ccc(Cl)nc2C(=O)NS(C)(=O)=O)c2nc(N3CCN(c4ccc(C#N)cn4)[C@H](C)C3)n(C)c(=O)c2c1 [Compound 200, 6-chloro-3-(((R)-1-(2-((R)-4-(5-cyanopyridin-2-yl)-3-methylpiperazin-1-yl)-3,6-dimethyl-4-oxo-3,4-dihydroquinazolin-8-yl)ethyl)amino)-N-(methylsulfonyl) picolinamide]
		< 250	1000 to 5000	Cc1cc([C@@H](C)Nc2ccc(Cl)nc2C(=O)NS(C)(=O)=O)c2nc(N3C[C@@H]4[C@H](C3)[C@H]4c3cccnc3C)n(C)c(=O)c2c1 [Compound 385, 6-chloro-3-(((R)-1-(3,6-dimethyl-2-((1R,5S,6S)-6-(2-methylpyridin-3-yl)-3-azabicyclo[3.1.0]hexan-3-yl)-4-oxo-3,4-dihydroquinazolin-8-yl)ethyl)amino)-N-(methylsulfonyl) picolinamide]
< 250	1000 to 5000			CC(=O)N1CCC(c2ccc(-c3nc4c([C@@H](C)Nc5ccc(Cl)nc5C(=O)NS(C)(=O)=O)cc(C)cc4c(=O)n3C)c(F)c2)CC1 [Compound 780, (R)-3-((1-(2-(4-(1-acetylpiperidin-4-yl)-2-fluorophenyl)-3,6-dimethyl-4-oxo-3,4-dihydroquinazolin-8-yl)ethyl)amino)-6-chloro-N-(methylsulfonyl) picolinamide]
< 250	≥ 5000			COCCn1ncc(F)c1C1CCN(c2nc3c([C@@H](C)Nc4ccc(Cl)nc4C(=O)NS(C)(=O)=O)cc(C)cc3c(=O)n2C)CC1 [Compound 472, (R)-6-chloro-3-((1-(2-(4-(4-fluoro-1-(2-methoxyethyl)-1H-pyrazol-5-yl)piperidin-1-yl)-3,6-dimethyl-4-oxo-3,4-dihydroquinazolin-8-yl)ethyl)amino)-N-(methylsulfonyl) picolinamide]
		< 250	1000 to 5000	Cc1cc([C@@H](C)Nc2ccc(Cl)nc2C(=O)NS(C)(=O)=O)c2nc(N3C[C@@H]4[C@H](C3)[C@H]4c3ccc(C#N)nc3)n(C)c(=O)c2c1 [Compound 402, 6-chloro-3-(((R)-1-(2-((1R,5S,6S)-6-(6-cyanopyridin-3-yl)-3-azabicyclo[3.1.0]hexan-3-yl)-3,6-dimethyl-4-oxo-3,4-dihydroquinazolin-8-yl)ethyl)amino)-N-(methylsulfonyl) picolinamide]
		250 to 500	≥ 5000	Cc1cc([C@@H](C)Nc2ccc(Cl)nc2C(=O)NS(C)(=O)=O)c2nc(N3CCC(c4nn(C)c(C)c4F)CC3)n(C)c(=O)c2c1 [Compound 421, (R)-6-chloro-3-((1-(2-(4-(4-fluoro-1,5-dimethyl-1H-pyrazol-3-yl)piperidin-1-yl)-3,6-dimethyl-4-oxo-3,4-dihydroquinazolin-8-yl)ethyl)amino)-N-(methylsulfonyl) picolinamide]
250 to 500	1000 to 5000			Cc1cc([C@@H](C)Nc2ccc(Cl)nc2C(=O)NS(C)(=O)=O)c2nc(N3CC[C@H](Oc4cnc(C)nc4)C3)n(C)c(=O)c2c1 [Compound 512, 6-chloro-3-(((R)-1-(3,6-dimethyl-2-((S)-3-((2-methylpyrimidin-5-yl)oxy)pyrrolidin-1-yl)-4-oxo-3,4-dihydroquinazolin-8-yl)ethyl)amino)-N-(methylsulfonyl) picolinamide]
		< 250	1000 to 5000	Cc1cc([C@@H](C)Nc2ccc(Cl)nc2C(=O)NS(C)(=O)=O)c2nc(N3C[C@@H]4[C@H](C3)[C@H]4n3ccc(C)n3)n(C)c(=O)c2c1 [Compound 416, 6-chloro-3-(((R)-1-(3,6-dimethyl-2-((1R,5S,6S)-6-(3-methyl-1H-pyrazol-1-yl)-3-azabicyclo[3.1.0]hexan-3-yl)-4-oxo-3,4-dihydroquinazolin-8-yl)ethyl)amino)-N-(methylsulfonyl) picolinamide]
250 to 500	≥ 5000			Cc1cc([C@@H](C)Nc2ccc(Cl)nc2C(=O)NS(C)(=O)=O)c2nc(N3CCC(c4nc(C)nn4C)CC3)n(C)c(=O)c2c1 [Compound 523, (R)-6-chloro-3-((1-(2-(4-(1,3-dimethyl-1H-1,2,4-triazol-5-yl)piperidin-1-yl)-3,6-dimethyl-4-oxo-3,4-dihydroquinazolin-8-yl)ethyl)amino)-N-(methylsulfonyl) picolinamide]
		< 250	1000 to 5000	Cc1cc([C@@H](C)Nc2ccc(Cl)nc2C(=O)NS(C)(=O)=O)c2nc(N3CCN(c4ccc(N)nc4)CC3)n(C)c(=O)c2c1 [Compound 174, (R)-3-((1-(2-(4-(6-aminopyridin-3-yl)piperazin-1-yl)-3,6-dimethyl-4-oxo-3,4-dihydroquinazolin-8-yl)ethyl)amino)-6-chloro-N-(methylsulfonyl) picolinamide]
250 to 500	≥ 5000			COc1nc(C2CCN(c3nc4c([C@@H](C)Nc5ccc(Cl)nc5C(=O)NS(C)(=O)=O)cc(C)cc4c(=O)n3C)CC2)ncc1C [Compound 562, (R)-6-chloro-3-((1-(2-(4-(4-methoxy-5-methylpyrimidin-2-yl)piperidin-1-yl)-3,6-dimethyl-4-oxo-3,4-dihydroquinazolin-8-yl)ethyl)amino)-N-(methylsulfonyl) picolinamide]
		< 250	1000 to 5000	Cc1cc([C@@H](C)Nc2ccc(Cl)nc2C(=O)NS(C)(=O)=O)c2nc(N3CCC(c4ccnn4C(F)F)CC3)n(C)c(=O)c2c1 [Compound 414, (R)-6-chloro-3-((1-(2-(4-(1-(difluoromethyl)-1H-pyrazol-5-yl)piperidin-1-yl)-3,6-dimethyl-4-oxo-3,4-dihydroquinazolin-8-yl)ethyl)amino)-N-(methylsulfonyl) picolinamide]
		< 250	≥ 5000	Cc1cc([C@@H](C)Nc2ccc(Cl)nc2C(=O)NS(C)(=O)=O)c2nc(N3C[C@@H]4CC(n5cc(C)cn5)C[C@H]4C3)n(C)c(=O)c2c1 (single isomer, unassigned) [Compound 367, 6-chloro-3-(((R)-1-(3,6-dimethyl-2-((3aR*,6aR*)-5-(4-methyl-1H-pyrazol-1-yl)hexahydrocyclopenta [c]pyrrol-2(1H)-yl)-4-oxo-3,4-dihydroquinazolin-8-yl)ethyl)amino)-N-(methylsulfonyl) picolinamide]

Structure (SMILES)	IC50 [1, 3] [nM]	IC50 [2, 4] [nM]	IC50 [1, 5] [nM]	IC50 [2, 6] [nM]
Cc1cc([C@@H](C)Nc2ccc(Cl)nc2C(=O)NS(C)(=O)=O)c2nc(N3C4CCC3CN(c3cnn(C)c3)C4)n(C)c(=O)c2c1 [Compound 269, 6-chloro-3-(((1R)-1-(3,6-dimethyl-2-(3-(1-methyl-1H-pyrazol-4-yl)-3,8-diazabicyclo[3.2.1]octan-8-yl)-4-oxo-3,4-dihydroquinazolin-8-yl)ethyl)amino)-N-(methylsulfonyl) picolinamide]			< 250	1000 to 5000
Cc1cc([C@@H](C)Nc2ccc(Cl)nc2C(=O)NS(C)(=O)=O)c2nc(N3[C@@H]4CC[C@H]3C[C@H](c3cnn(C)c3)C4)n(C)c(=O)c2c1 [Compound 298, 6-chloro-3-(((R)-1-(3,6-dimethyl-2-((1R,3S,5S)-3-(1-methyl-1H-pyrazol-4-yl)-8-azabicyclo[3.2.1]octan-8-yl)-4-oxo-3,4-dihydroquinazolin-8-yl)ethyl)amino)-N-(methylsulfonyl) picolinamide]			< 250	≥ 5000
Cc1cc([C@@H](C)Nc2ccc(Cl)nc2C(=O)NS(C)(=O)=O)c2nc(N3[C@@H]4CC[C@H]3C[C@@H](n3cc(C)cn3)C4)n(C)c(=O)c2c1 [Compound 482, 6-chloro-3-(((R)-1-(3,6-dimethyl-2-((1R,3R,5S)-3-(4-methyl-1H-pyrazol-1-yl)-8-azabicyclo[3.2.1]octan-8-yl)-4-oxo-3,4-dihydroquinazolin-8-yl)ethyl)amino)-N-(methylsulfonyl) picolinamide]	< 250	1000 to 5000		
Cc1cc([C@@H](C)Nc2ccc(Cl)nc2C(=O)NS(C)(=O)=O)c2nc(N3[C@@H]4CC[C@H]3C[C@@H](c3ccn(C)n3)C4)n(C)c(=O)c2c1 [Compound 340, 6-chloro-3-(((R)-1-(3,6-dimethyl-2-((1R,3R,5S)-3-(1-methyl-1H-pyrazol-3-yl)-8-azabicyclo[3.2.1]octan-8-yl)-4-oxo-3,4-dihydroquinazolin-8-yl)ethyl)amino)-N-(methylsulfonyl) picolinamide]			250 to 500	≥ 5000
